Reference: patent publication US6630191B1, “Aspartyl dipeptide ester derivatives and sweeteners” (Ajinomoto Co., Inc., priority 1998, dated 2003)
Marks after values point to notes of the source that are not given here.

What was measured:
[1] = Sensory evaluation of sweetening potency relative to sugar (4% sucrose aqueous solution); details: for Sweetening Potency / Sweetening Potency, compensated value as optical isomer: Relative to sweetening potency of a 4% sucrose aqueous solution; for Sweetening potency (relative to sugar): sensory evaluation; for Sweetening Potency, compensated value as optical isomer: compensated value as optical isomer (DL-homophenylalanine derivatives)
From the text: For example, the sweetening potency of N-[N-[3-(3-hydroxy-4-methoxyphenyl)propyl]-L-α-aspartyl]-L-(α-methyl)phenylalanine 1-methyl ester was approximately 18,000 times (relative to sugar), that of N-[N-[3-(3-methoxy-4-hydroxyphenyl)propyl]-L-α-aspartyl]-L-(α-methy)phenylalanine 1-methyl ester was approximately 18,000 times (relative to sugar), that of N-[N-[3-(3-hydroxy-4-methoxyphenyl)propyl]-L-α-aspartyl]-3-cyclohexyl-L-alanine 1-methyl ester was approximately 25,000 times (relative to sugar), that of N-[N-[3-(3-methoxy-4-hydroxyphenyl)propyl]-L-α-aspartyl]-3-cyclohexyl-L-alanine 1-methyl ester was approximately 25,000 times (relative to sugar), that of N-[N-[3-(3-methyl-4-hydroxyphenyl)propyl]-L-(α-aspartyl]-3-cyclohexyl-L-alanine 1-methyl ester was approximately 40,000 times (relative to sugar).
With respect to the aspartyl dipeptide derivatives (represented by the following general formula (5)) formed, the structures and the results of the sensory evaluation are shown in Table 1. [drawing 4]

[2] = reported in WO 94/11391; cited from earlier work

| Structure (SMILES) | Sweetening Potency [1] | Sweetening potency (relative to sugar) [1] | other results |
| --- | --- | --- | --- |
| COC(=O)C(NC(=O)C(CC(=O)O)NCCCc1ccc(O)c(OC)c1)c1ccccc1 [Compound 6, N-[N-[3-(3-Methoxy-4-hydroxyphenyl)propyl]-L-α-aspartyl]-L-phenylglycin 1-Methyl Ester] | 700 | 700 times | – |
| COC(=O)[C@H](Cc1ccccc1)NC(=O)[C@H](CC(=O)O)NCCC(C)(C)C [N-[N-(3,3-dimethylbutyl)-L-α--aspartyl]-L-phenylalanine 1-methyl ester] | – | – | Sweetening potency, times that of sugar [2]: 10,000 times |
| COC(=O)[C@H](CC1CCCCC1)NC(=O)[C@H](CC(=O)O)NCCCc1ccc(O)c(OC)c1 [Compound 4, N-[N-(3-(3-Methoxy-4-hydroxyphenyl)propyl]-L-α-aspartyl]-3-cyclohexyl-L-alanine 1-Methyl Ester] | 25000 | 25,000 times | Sweetening potency (relative to sugar) ([1]; listed as N-[N-[3-(3-methoxy-4-hydroxyphenyl)propyl]-L-α-aspartyl]-3-cyclohexyl-L-alanine): approximately 25,000 times |
| COC(=O)C(CCc1ccccc1)NC(=O)[C@H](CC(=O)O)NCCCc1ccc(OC)c(O)c1 (mixture of isomers) [Compound 7, N-[N-[3-(3-Hydroxy-4-methoxyphenyl)propyl]-L-α-aspartyl]-DL-homophenylalanine 1-Methyl Ester] | – | 1,000 times | Sweetening Potency, compensated value as optical isomer [1]: 2000^2) |
| COC(=O)[C@H](Cc1ccccc1)NC(=O)[C@H](CC(=O)O)NCCCc1ccccc1 [N-[N-(3-phenylpropyl)-L-α-aspartyl]-L-phenylalanine 1-methyl ester] | – | – | Sweetening potency, times that of sugar [2]: 1,500 times |
| COC(=O)[C@](C)(Cc1ccccc1)NC(=O)[C@H](CC(=O)O)NCCCc1ccc(O)c(OC)c1 [Compound 2, N-(N-(3-(3-Methoxy-4-hydroxyphenyl)propyl]-L-α-aspartyl]-L-(α-methyl)phenylalanine 1-Methyl Ester] | 18000 | 18,000 times | Sweetening potency (relative to sugar) ([1]; listed as N-[N-[3-(3-methoxy-4-hydroxyphenyl)propyl]-L-α-aspartyl]-L-(α-methy)phenylalanin): approximately 18,000 times |
| COC(=O)[C@](C)(Cc1ccccc1)NC(=O)[C@H](CC(=O)O)NCCCc1ccc(OC)c(O)c1 [Compound 1, N-[N-[3-(3-Hydroxy-4-methoxyphenyl)propyl]-L-α-aspartyl]-L-(α-methyl)phenylalanine 1-Methyl Ester] | 18000 | 18,000 times | Sweetening potency (relative to sugar) ([1]; listed as N-[N-[3-(3-hydroxy-4-methoxyphenyl)propyl]-L-α-aspartyl]-L-(α-methyl)phenylalani): approximately 18,000 times |
| CCCOC(=O)[C@@H](C)NC(=O)[C@H](CC(=O)O)NCCCc1ccc(OC)c(O)c1 [Compound 9, N-[N-[3-(3-Hydroxy-4-methoxyphenyl)propyl]-L-α-aspartyl]-D-alanine 1-n-Propyl Ester] | 800 | 800 times | – |
| COC(=O)[C@H](CC1CCCCC1)NC(=O)[C@H](CC(=O)O)NCCCc1ccc(OC)c(O)c1 [Compound 3, N-[N-[3-(3-Hydroxy-4-methoxyphenyl)propyl]-L-α-aspartyl]-3-cyclohexyl-L-alanine 1-Methyl Ester] | 25000 | 25,000 times | Sweetening potency (relative to sugar) ([1]; listed as N-[N-[3-(3-hydroxy-4-methoxyphenyl)propyl]-L-α-aspartyl]-3-cyclohexyl-L-alanine): approximately 25,000 times |
| CCCOC(=O)[C@@H](C)NC(=O)[C@H](CC(=O)O)NCCCc1ccc(O)c(OC)c1 [Compound 10, N-[-[3-(3-Methoxy-4-hydroxyphenyl)propyl]-α-aspartyl]-D-alanine 1-n-Propyl Ester] | 600 | 600 times | – |
| Cc1ccc(CCCN[C@@H](CC(=O)O)C(=O)N[C@@H](CC2CCCCC2)C(=O)O)c(O)c1 [Compound 13] | 25000 | 25,000 times | – |
| COC(=O)C(CCc1ccccc1)NC(=O)[C@H](CC(=O)O)NCCCc1ccc(O)c(OC)c1 (mixture of isomers) [Compound 8, N-[N-[3-(3-Methoxy-4-hydroxyphenyl)propyl]-L-α-aspartyl]-DL-homophenylalanine 1-Methyl Ester] | – | 1,200 times | Sweetening Potency, compensated value as optical isomer [1]: 2400^2) |
| COC(=O)[C@H](CC1CCCCC1)NC(=O)[C@H](CC(=O)O)NCCCc1ccc(O)c(C)c1 [Compound 12, N-[N-(3-(3-Methyl-4-hydroxyphenyl)propyl]-L-α-aspartyl]-3-cyclohexyl-L-anine 1-Methyl Ester] | 40000 | 40,000 times | Sweetening potency (relative to sugar) ([1]; listed as N-[N-[3-(3-methyl-4-hydroxyphenyl)propyl]-L-(α-aspartyl]-3-cyclohexyl-L-alanine): approximately 40,000 times |
| COC(=O)C(C)(Cc1ccccc1)NC(=O)C(CC(=O)O)NCCCc1ccc(OC)cc1O [Compound 11, N-[N-[3-(2-Hydroxy-4-methoxyphenyl)propyl]-L-α-aspartyl]-L-(α-methyl) Phenylalanine 1-Methyl Ester] | 15000 | 15,000 times | – |
| COC(=O)C(Cc1ccc(O)cc1)NC(=O)C(CC(=O)O)NCCC(C)(C)C [N-[N-(3,3-dimethylbutyl)-L-α-aspartyll-L-tyrosine 1-methyl ester] | – | – | Sweetening potency, times that of sugar [2]: 4,000 times |
| COC(=O)C(NC(=O)C(CC(=O)O)NCCCc1ccc(OC)c(O)c1)c1ccccc1 [Compound 5, N-[N-[3-(3-Hydroxy-4-methoxyphenyl)propyl]-L-α-aspartyl]-L-phenylglycin 1-Methyl Ester] | 1600 | 1,600 times | – |
| COC(=O)[C@H](Cc1ccccc1)NC(=O)[C@H](CC(=O)O)NCCCc1ccc(O)c(OC)c1 [N-[N-[3-(3-methoxy-4-hydroxyphenyl)propyl]-L-α-aspartyl]-L-phenylalanine 1-methyl ester] | – | – | Sweetening potency, times that of sugar [2]: 2,500 times |
